Molecules are shown by their SMILES.

We go through twelve compounds from patent US6518005B2, “Silver halide multilayer color photographic material” (Ferrania, S.p.A., priority 2000, dated 2003).

A short description of series [1]: Absorption of methanol solutions of the dyes (λmax and density at 400, 450, 500 nm). The format is physicochemical. The settings on record: for D400: density measured at 400 nm; for D400 / D450 / D500: methanol solution with density 0.6 at λmax; for D450: density measured at 450 nm; for D500: density measured at 500 nm; for λmax (nm): methanol solution, density 0.6 at λmax; for spectral region absorbed (in words): methanol solutions, from the data of Table 1.

A short description of series [2]: Solubility in tricresylphosphate and crystallization tendency on cooling. The format is physicochemical. The settings on record: for Solubility: in tricresylphosphate, under stirring at 60° C.; for Not-to-Crystallize Tendency: tricresylphosphate solution cooled at room temperature. How it is done: The compounds shown in Table 2 were added with a quantity of tricresylphosphate under stirring at 60° C. up to obtain a limpid solution. The samples were then cooled at room temperature and the crystallization tendency thereof was evaluated.

In the case of `CCCCS(=O)(=O)Nc1ccc(C2=NOC(=O)/C2=C\C2CN(CCC(=O)OCC)c3ccccc32)cc1` (single isomer, unassigned) [B], in series [1], the D400 was determined as 0.09, the D450 was determined as 0.53, the D500 came to 0.10 and the “λmax (nm)” value is on record as 463 nm. Moreover, the “spectral region absorbed (in words)” value in series [1] is reported as “mainly absorb in the blue region, but that the green region (500-600 nm) is also interested”.
Regarding `CCCCS(=O)(=O)Nc1ccc(C2=NOC(=O)/C2=C\C2CN(CCC(=O)OCC)c3ccccc32)cc1` (centres unmarked) [C], in series [1], the D400 is given as 0.45, the D450 worked out at 0.03, the D500 came out at 0.00 and the “λmax (nm)” value is on record as 377 nm. In addition, the “spectral region absorbed (in words)” value in series [1] (listed as Sample 11) is listed as “mainly absorb in the ultraviolet”.
In the case of `CCCCS(=O)(=O)Nc1ccc(C2=NOC(=O)/C2=C\C2CN(CCC(=O)OCC)c3ccccc32)cc1` (centres unmarked) [Compound G], in series [2], the Solubility result is recorded as “good” and the “Not-to-Crystallize Tendency” value was “not good”. In addition, in series [1], the D400 was found to be 0.27, the D450 was determined as 0.55, the D500 amounted to 0.00 and the “λmax (nm)” value came to 438 nm.
As for `C=CCn1cccc1/C=C1\C(=O)ON=C1c1ccc(NS(=O)(=O)CCCC)cc1` [Compound I-2], in series [1], the D400 is listed as 0.41, the D450 is on record as 0.24, the D500 came to 0.00 and the “λmax (nm)” value is 421 nm.
The matching figures for `COc1ccc(C2=NOC(=O)/C2=C\c2ccc[nH]2)cc1` [Compound I-3]: 0.48, 0.08, 0.00 and 418 nm.
As to `CCOC(=O)CCn1cccc1/C=C1\C(=O)ON=C1c1ccc(OC)cc1` [Compound I-4], in series [1], the D400 amounted to 0.44, the D450 stood at 0.22, the D500 is listed as 0.00 and the “λmax (nm)” value is 420 nm.
In the case of `CCOC(=O)Cn1cccc1/C=C1\C(=O)ON=C1c1ccc(OC)cc1` [Compound I-5], in series [1], the D400 is reported as 0.47, the D450 is listed as 0.21, the D500 amounted to 0.00 and the “λmax (nm)” value came to 419 nm.
For `C=CCn1cccc1/C=C1\C(=O)ON=C1C(C)(C)C` [Compound I-6], in series [1], the D400 is on record as 0.52, the D450 is reported as 0.17, the D500 stood at 0.00 and the “λmax (nm)” value came to 415 nm.
For `CCCCS(=O)(=O)Nc1ccc(C2=NOC(=O)/C2=C\c2cccn2C(CC)C(=O)OCCOCC)cc1` (centres unmarked) [Compound I-7], the “Not-to-Crystallize Tendency” value in series [2] is “good”. Moreover, the “Not-to-Crystallize Tendency” value in series [2] (listed as Sample 7) is “do not exhibit any tendency to crystallize”. Besides, in series [1], the D400 was 0.42, the D450 is 0.03, the D500 is listed as 0.00 and the “λmax (nm)” value turned out to be 423 nm.
For the compound `CCCCS(=O)(=O)Nc1ccc(C2=NOC(=O)/C2=C\C2CN(CCC(=O)OCC)c3ccccc32)cc1` (centres unmarked) [D], in series [1], the D400 was found to be 0.35, the D450 was 0.00, the D500 was determined as 0.00 and the “λmax (nm)” value is reported as 374 nm. Also, the “spectral region absorbed (in words)” value in series [1] (listed as Sample 12) is listed as “mainly absorb in the ultraviolet”.
Regarding `CCCCS(=O)(=O)Nc1ccc(C2=NOC(=O)/C2=C\C2CN(CCC(=O)OCC)c3ccccc32)cc1` (centres unmarked) [E], in series [2], the Solubility entry is reported as “good” and the “Not-to-Crystallize Tendency” value was “not good”. Besides, in series [1], the D400 is listed as 0.26, the D450 is given as 0.50, the D500 was 0.00 and the “λmax (nm)” value amounted to 437 nm.
Take `CCCCS(=O)(=O)Nc1ccc(C2=NOC(=O)/C2=C\C2CN(CCC(=O)OCC)c3ccccc32)cc1` (centres unmarked) [F]: in series [2], the Solubility entry is given as “good” and the “Not-to-Crystallize Tendency” value is recorded as “not good”. Moreover, in series [1], the D400 amounted to 0.28, the D450 came to 0.54, the D500 is reported as 0.00 and the “λmax (nm)” value worked out at 437 nm.
